Measurements reported in paper PMC12679356 (RSC Advances, 2025).
Converted amounts (≈) assume the structure as drawn.

Key:
HEK-293 = experiment: MTT cytotoxicity assay on non-cancerous HEK-293; format: cell-based; conditions: Homo sapiens, HEK293, read-out: IC50 HEK-293
Caco-2 = experiment: MTT cytotoxicity assay on Caco-2; format: cell-based; conditions: Homo sapiens, Caco-2, read-out: IC50 Caco-2
MDA-MB-231 = experiment: MTT cytotoxicity assay on MDA-MB-231; format: cell-based
[1] = system: MCF-7 breast cancer cells; conditions: read-out: IC50 MCF-7; literature hybrids 5-7 and 5-FU; cited from earlier work

Cc1ccc(CNC(=O)Cn2cc(CSc3nc4ccccc4[nH]3)nn2)cc1 [Compound 11]
IC50 (HEK-293): 63.4 ± 2.5 µg/mL (≈ 162 µM) | IC50 (Caco-2): 63.8 ± 1.09 µg/mL (≈ 163 µM) | IC50 (MDA-MB-231; Homo sapiens, MDA-MB-231, read-out: IC50 MDA-MB-231): 68.3 ± 3.1 µg/mL (≈ 174 µM) | SI HEK/MDA (MDA-MB-231; selectivity index, HEK-293 vs MDA-MB-231): 0.93

O=c1[nH]cc(F)c(=O)[nH]1 [Compound 5-FU, 5-FU]
IC50 [1]: 12.4 µM
